According to US9192666B2, “Method of treating cancer using anti-c-Met antibody and FGFR inhibitor combination therapy” (Samsung Electronics Co., Ltd., priority 2013, dated 2015):

B1: L3-1Y/IgG2: anti-c-Met antibody: huAbF46-H4-A1 heavy chain variable region, human IgG2 hinge and constant region, kappa light chain (antibody)
heavy: EVQLVESGGGLVQPGGSLRLSCAASGFTFTDYYMSWVRQAPGKGLEWLGFIRNKANGYTTEYSASVKGRFTISRDNSKNTLYLQMNSLRAEDTAVYYCARDNWFAYWGQGTLVTVSSASTKGPSVFPLAPCSRSTSESTAALGCLVKDYFPEPVTVSWNSGALTSGVHTFPAVLQSSGLYSLSSVVTVPSSNFGTQTYTCNVDHKPSNTKVDKTVERKCCVECPPCPAPPVAGPSVFLFPPKPKDTLMISRTPEVTCVVVDVSHEDPEVQFNWYVDGVEVHNAKTKPREEQFNSTFRVVSVLTVVHQDWLNGKEYKCKVSNKGLPAPIEKTISKTKGQPREPQVYTLPPSREEMTKNQVSLTCLVKGFYPSDIAVEWESNGQPENNYKTTPPMLDSDGSFFLYSKLTVDKSRWQQGNVFSCSVMHEALHNHYTQKSLSLSPGK
light: DIQMTQSPSSLSASVGDRVTITCKSSQSLLASGNQNNYLAWYQQKPGKAPKMLIIWASTRVSGVPSRFSGSGSGTDFTLTISSLQPEDFATYYCQQSYSRPYTFGQGTKVEIKRTVAAPSVFIFPPSDEQLKSGTASVVCLLNNFYPREAKVQWKVDNALQSGNSQESVTEQDSKDSTYSLSSTLTLSKADYEKHKVYACEVTHQGLSSPVTKSFNRGEC

Columns and labels:
[1] = tested on: MKN45 gastric cancer cells; experiment: Cell viability (CellTiter Glo) in MKN45 gastric cancer cell line; format: cell-based; conditions: for cell growth inhibition: MKN45, 72 hours, L3-1Y/IgG2 0-2 ug/ml, PD173074 fixed at 10 uM
Method: In particular, RPMI1640 medium (GIBCO) containing 10% FBS was put in a 96 well plate. MKN45 gastric cancer cells (JCRB, JCRB0254) were seeded thereon in the amount of 5,000 cells/well, and incubated overnight at 37° C. After 24 hours (the next day), the incubated cells were treated with L3-1Y/IgG2 (Reference Example 1) alone, or co-treated with L3-1Y/IgG2 and a FGFR inhibitor, PD173074. For the single treatment of L3-1Y/IgG2 alone, the concentration of L3-1Y/IgG2 was 0 ug (microgram)/ml, 0.016 ug/ml, 0.08 ug/ml, 0.4 ug/ml, or 2 ug/ml, and for the co-treatment of L3-1Y/IgG2 and PD173074, the concentration of PD173074 was fixed at 10 uM (micromole) which is a concentration of IC20 in MKN45 cell line, and the concentration of L3-1Y/IgG2 was 0 ug/ml, 0.016 ug/ml, 0.08 ug/ml, 0.4 ug/ml, or 2 ug/ml.
At 72 hours after the single treatment or the co-treatment, 100 uL (microliter) of CellTiter Glo solution (Promega, G7572) was added to each well, and left for 30 minutes at room temperature. The cell number was counted by emission signal, and the emission signal was recorded using Envision 2104 Multi-label Reader (Perkin Elmer).

[2] = tested on: L3-1Y/IgG2 resistant MKN45 cells; experiment: Cell viability in L3-1Y/IgG2 resistant MKN45 cells; format: cell-based; conditions: 72 hours, PD173074 10 uM, BGJ398 5 uM
Method: To verify that the co-treatment with a FGFR inhibitor allows overcoming a L3-1Y/IgG2 resistance acquired by repeated treatment of L3-1Y/IgG2, L3-1Y/IgG2 resistant cells were prepared by treating L3-1Y/IgG2 to MKN45 gastric cancer cell line for at least 3 months, and used for the following experiment. The L3-1Y/IgG2 resistant cells were prepared as follows: MKN45 cells (JCRB, JCRB0254) were treated with L3-1Y/IgG2, where the concentration of treated L3-1Y/IgG2 was increased from 1 ug/ml to 10 ug/ml, until the resistance is acquired. To verify the acquirement of resistance to L3-1Y/IgG2, the resistance acquired clones were cultured with or without L3-1Y/IgG2 treatment, and at 72 hours after the treatment, the cell number was measured by CellTiter Glo assay (Promega, G7573), referring to the above example,
The synergistic effect of co-treatment of a FGFR inhibitor and L3-1Y/IgG2 was verified as follows. The prepared L3-1Y/IgG2 resistant MKN45 cells were seeded at the amount of 5,000 cells/well on 96 well plate to which RPMI1640 medium (GIBCO) supplemented with 10% FBS is added, and incubated overnight at 37° C. Next day (24 hours after), the incubated cells were treated with L3-1Y/IgG2 alone or together with FGFR inhibitor, PD173074 or BGJ398. For the treatment of L3-1Y/IgG2 only, the concentration of L3-1Y/IgG2 was 0 ug/ml, 0.016 ug/ml, 0.08 ug/ml, 0.4 ug/ml, or 2 ug/ml, and for the co-treatment, the concentration of the FGFR inhibitor was fixed and the concentration of L3-1Y/IgG2 was 0 ug/ml, 0.016 ug/ml, 0.08 ug/ml, 0.4 ug/ml, or 2 ug/ml. The concentration of the FGFR inhibitor was fixed at 10 uM for PD173074 and 5 uM for BGJ398.
(§1) At 72 hours after the single treatment or the co-treatment, 100 uL of CellTiter Glo solution (Promega, G7572) was added to each well, and left for 30 minutes at room temperature. The cell number was counted by emission signal, and the emission signal was recorded using Envision 2104 Multi-label Reader (Perkin Elmer).

[3] = tested on: MKN45 gastric cancer cells; experiment: Tumor xenograft model of MKN45 gastric cancer cell line; format: in vivo, BALB/c nude mice; conditions: 21st day after treatment vs vehicle, BGJ398 10 mg/kg P.O. once a day, L3-1Y/IgG2 1 mg/kg I.V. once a week
Method: To verify the in vivo effect of the co-administration on tumor growth, a tumor xenograft model was prepared using male 5-6 week-old BALB/c nude mice (Pharmalegacy, China). The mice were adapted at least one week before inoculation of tumor cells.
Then, the mice were anesthetized with 1-2% isofurane, and MKN45 gastric cancer cells (JCRB, JCRB0254) were subcutaneously injected into right flank of the mice at the amount of 5×10^6 cells/each mouse. 7 days after, when the average size of tumor reaches 50 mm^3 or more, the mice were grouped into the following groups: a group treated with BGJ398 (10 mg/kg P.O., once a day), a group treated with L3-1Y/IgG2 (1 mg/kg I.V., once a week), a group co-treated with L3-1Y/IgG2 (1 mg/kg, I.V., once a week) and BGJ398 (10 mg/kg, P.O., once a day), and a group (control) treated with vehicle (PBS 0.2 ml, I.V., once a week). Each group consisted of 10 mice.
The experiment was performed for 4 weeks in total, and tumor size and body weight of the mice were measured twice a week. The tumor volume (V) was calculated by the following formula: V(mm^3)={length of long axis(mm)×(length of short axis(mm))^2}/2.

[4] = tested on: L3-1Y/IgG2 resistant EBC1 cells; experiment: Cell viability in L3-1Y/IgG2 resistant EBC1 cells; format: cell-based; conditions: 72 hours, BGJ398 5 uM
Method: To verify that the co-treatment with a FGFR inhibitor allows overcoming a L3-1Y/IgG2 resistance acquired by repeated treatment of L3-1Y/IgG2, L3-1Y/IgG2 resistant cells were prepared by treating L3-1Y/IgG2 to EBC1 lung cancer cell line for at least 3 months, and used for the following experiment. The EBC1 lung cancer cell line acquiring the resistant to L3-1Y/IgG2 was prepared referring to Example 4.
The synergistic effect of co-treatment of a FGFR inhibitor and L3-1Y/IgG2 was verified as follows. The prepared L3-1Y/IgG2 resistant EBC1 cells were seeded at the amount of 5,000 cells/well on a 96 well plate to which RPMI1640 medium (GIBCO) supplemented with 10% FBS is added, and incubated overnight at 37° C. Next day (24 hours after), the incubated cells were treated with L3-1Y/IgG2 alone or together with FGFR inhibitor, BGJ398. […]
as §1

EBC1 lung cancer cells = experiment: Cell viability (CellTiter Glo) in EBC1 lung cancer cell line; format: cell-based; conditions: 72 hours, L3-1Y/IgG2 0-2 ug/ml, PD173074 10 uM or BGJ398 5 uM
Method: (§2) In particular, RPMI1640 medium (GIBCO) containing 10% FBS were put in 96 well plate. EBC1 lung cancer cells (JCRB, JCRB0820) were seeded thereon in the amount of 5,000 cells/well, and incubated overnight at 37° C. After 24 hours (the next day), the incubated cells were treated with L3-1Y/IgG2 (Reference Example 1) alone, or co-treated with L3-1Y/IgG2 and a FGFR inhibitor, PD173074 or BGJ398. For the single treatment of L3-1Y/IgG2 alone, the concentration of L3-1Y/IgG2 was 0 ug/ml, 0.016 ug/ml, 0.08 ug/ml, 0.4 ug/ml, or 2 ug/ml, and for the co-treatment of L3-1Y/IgG2 and PD173074 or BGJ398, the concentration of PD173074 was fixed at 10 uM for PD173074 and 5 uM for BGJ398, and the concentration of L3-1Y/IgG2 was 0 ug/ml, 0.016 ug/ml, 0.08 ug/ml, 0.4 ug/ml, or 2 ug/ml.
as §1

HT29 colon cancer cells = experiment: Cell viability (CellTiter Glo) in HT29 colon cancer cell line; format: cell-based; conditions: 72 hours, L3-1Y/IgG2 0-2 ug/ml, PD173074 fixed at 5 uM
Method: as §2, with “HT29 colon” for “EBC1 lung”, “(ATCC, HTB-38)” for “(JCRB, JCRB0820)”, “PD173074.” for “PD173074 or BGJ398.”, “PD173074,” for “PD173074 or BGJ398,”, “at” for “at 10 uM for PD173074 and”, “uM,” for “uM for BGJ398,”
as §1

Molecule | IC20 ([1]; Homo sapiens, MKN-45, read-out: concentration of IC20 in MKN45 cell line) [µM] | cell growth inhibition [1] | cancer cell growth inhibitory effect [2] | tumor inhibition rate, At d21:TV [3] [%] | cancer cell growth inhibitory effect [4] | cell growth inhibition (EBC1 lung cancer cells) | cell growth inhibiting effect (HT29 colon cancer cells)
CCN(CC)CCCCNc1ncc2cc(-c3cc(OC)cc(OC)c3)c(NC(=O)NC(C)(C)C)nc2n1 [PD173074, N-[2-[[4-(Diethylamino)butyl]amino]-6-(3,5-dimethoxyphenyl)pyrido[2,3-d]pyrimidin-7-yl]-N′-(1,1-dimethylethyl)urea] | 10 | no significant effect on cell growth | not obtained |  |  |  | 
CCN1CCN(c2ccc(Nc3cc(N(C)C(=O)Nc4c(Cl)c(OC)cc(OC)c4Cl)ncn3)cc2)CC1 [BGJ398, 3-(2,6-dichloro-3,5-dimethoxyphenyl)-1-(6-(4-(4-ethylpiperazin-1-yl)phenylamino)pyrimidin-4-yl)-1-methylurea, reference compound] |  |  | not obtained | 1.3 | not obtained |  | 
B1 |  | cell growth inhibition is observed | not obtained | 27.8 | not obtained | cell growth inhibiting effect is observed | not observed
